Experimental data published in patent US20250360108A1, “CATALYTIC INHIBITOR OF PROTEIN PHOSPHATASE 5 ACTIVATES THE EXTRINSIC APOPTOTIC PATHWAY BY DISRUPTING COMPLEX II” (The Research Foundation for the State University of New York, priority 2022, published 2025).
Blank lines part the entries; values can stand above or below the compound they belong to.

Tests used:
786-O cells [1] = experiment: Induction of apoptosis by immunoblotting of apoptotic markers; assay type: cell-based, human
Procedure: Method Details Cell Transfection and Treatment: Cultured cells were split and then transfected the following day when about 40% confluent with each construct using Mirus TranslT-2020 (MirusBio) according to manufacturer's protocol. Cells were incubated at 37° C. and then extracted or collected for analysis after 24 hrs (HEK293) or 72 hrs (ccRCC cell lines). Short interfering RNA (siRNA) scramble control and PPP5C (PP5) targeting duplexes were purchased from OriGene (SKU: SR321403A, SR321403B, and SR321403C). Indicated cells were transiently transfected with the siRNA using Mirus TranslT-2020. For PP5 knock-down, either 30 nM of control siRNA or 10 nM of each PP5 siRNA duplex (A, B and C) were mixed prior to transfection. Cells were incubated at 37° C. for 72 hrs, then harvested for protein extraction. […] Cells were then harvested for protein extraction.
Protein Extraction, Immunoprecipitation and Immunoblotting: Protein extraction from mammalian cells was carried out using methods previously described. Cell lysates were quantified using 1× Bradford reagent (Biorad). For immunoprecipitation, cell lysates were incubated with anti-FLAG antibody conjugated beads (Sigma) or anti-HA conjugated beads (ThermoFisher Scientific) at 4° C. for 2 hrs. Endogenous IPs were achieved by incubating lysate with anti-PP5 antibody (Cell Signaling), anti-FADD antibody (Cell Signaling), or anti-RIPK1 antibody (Cell Signaling) overnight followed by protein G agarose (Invitrogen) at 4° C. for 2 hrs. Immunopellets were washed 4 times with fresh lysis buffer (20 mM Tris-HCl (pH 7.4), 100 mM NaCl, 1 mM MgCl2, 0.1% NP40, protease inhibitor cocktail (Roche), and PhosSTOP (Roche)) and eluted in 5× Laemmli buffer. Precipitated proteins were separated by SDS-PAGE and transferred to nitrocellulose membranes. Co-immunoprecipitated proteins or proteins from cell lysate were detected with antibodies recognizing FLAG, 6×-His (ThermoFisher Scientific), GAPDH (ENZO Life Sciences), Cdc37 (StressMarq), GR, phospho-GR (S211), PP5, caspase-3, cleaved caspase-3, caspase-8, cleaved caspase-8, cleaved caspase-7, cleaved-PARP, phospho-RIPK1 (S166), phospho-FADD (S194), PP2A-C, VHL (Cell Signaling), phospho-RIPK1 (S161) (Invitrogen), PP5 and phospho-Cdc37 (S13) (Abcam). Secondary antibodies raised against mouse and rabbit (Cell Signaling) were used (See Key Resources Table).

recombinant PP5-His6 [2] = target: T1, recombinant PP5-His6 (Homo sapiens, UniProt P53041); experiment: PP5 Phosphatase Activity and Inhibition Assay (PiPer phosphate release, phospho-S211-GR peptide); assay type: biochemical; conditions: phospho-S211-GR peptide substrate
T1 construct: GST (N, cleaved yes); made in house
T1 sequence (P53041 1-499): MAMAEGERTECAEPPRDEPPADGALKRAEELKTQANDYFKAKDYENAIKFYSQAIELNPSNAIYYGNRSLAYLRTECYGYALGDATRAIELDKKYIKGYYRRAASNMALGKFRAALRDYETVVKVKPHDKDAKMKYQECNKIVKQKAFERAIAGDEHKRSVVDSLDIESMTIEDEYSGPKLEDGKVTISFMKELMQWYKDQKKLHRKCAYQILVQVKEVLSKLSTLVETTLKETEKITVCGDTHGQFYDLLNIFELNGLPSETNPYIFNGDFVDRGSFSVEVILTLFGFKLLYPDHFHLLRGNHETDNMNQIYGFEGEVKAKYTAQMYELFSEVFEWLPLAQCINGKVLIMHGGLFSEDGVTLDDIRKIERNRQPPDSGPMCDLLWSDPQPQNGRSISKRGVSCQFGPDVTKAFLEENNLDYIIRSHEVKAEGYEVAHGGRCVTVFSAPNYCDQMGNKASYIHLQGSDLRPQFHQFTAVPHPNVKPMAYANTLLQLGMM
Procedure: PP5 inhibitors specifically bind to the phosphatase-catalytic domain: We next sought to measure the inhibition of PP5 activity in vitro with P5 and P13.
Bacterial Expression and Protein Purification of PP5: Human PPP5c was cloned into pGEX6P1 with an N-terminal GST tag and C-terminal His6 tag. Transformed cells were grown at 37° C. in LB with 100 mg/L ampicillin until OD600=0.6 and induced with 1 mM IPTG. Cells were harvested by centrifugation and lysed by sonication in lysis buffer (50 mM Hepes (pH 8.0), 150 mM NaCl, 0.5 mM TCEP and EDTA-free protease inhibitor cocktail tablet (Roche)). Lysate was incubated with talon resin (Takara Bio) for 1 hr at 4° C. The resin was washed three times with lysis buffer and PP5 was eluted with lysis buffer containing 250 mM imidazole. Precision protease was added to the elution overnight to cleave the GST tag and the sample was then mixed with Glutathione Sepharose resin (Cytiva) to remove the free GST and un-cleaved protein. The sample was applied to a Superdex S75 16/60 size exclusion column (GE Healthcare) and eluted in 100 mM NaCl, 20 mM Hepes pH 8, 02 mM TCEP.
PP5 Phosphatase Activity and Inhibition Assay: The phosphatase activity of the recombinant PP5-His6 was measured using the PiPer™ Phosphate Assay Kit (Thermo Fisher Scientific) as described in the manufacturer's protocol. Standard curve with linear fit line was created from 0-1 nM Pifinal concentration reactions. 1 nM of PP5-His6 was added to each reaction with indicated amounts of custom synthesized substrate phospho-S211-glucocorticoid receptor (PhosS211-GR) peptide (see Key Resources Table) as specific substrate (Thermo Fisher Scientific). Reactions were run in triplicate and incubated at 37° C. for over 10 min. […] Enzyme kinetics were calculated and plotted using Lineweaver Burk plot and web-based tool (https://www.aatbio.com/tools/ic50-calculator) for calculating IC50 and (https://bioinfo-abcc.ncifcrf.gov/IC50_Ki_Converter/index.php) for converting IC50 to Ki values for inhibitors of enzyme activity and ligand binding.

786-O cells [3] = experiment: Cell viability / proliferation MTT assay; assay type: cell-based, human; conditions: varying doses, 48 hrs
Procedure: Cell Viability Assay: Renal cancer cell lines 786-O, Caki-2, Caki-1, and A498 as well as the normal renal cell line HK-2 were plated at 10,000 cells per well in 96-well plates. […] After 24 or 48 hrs, cell viability assay was performed using the Quick Cell Proliferation Kit Plus (BioVision) according to the manufacturer's protocol. The absorbance at 450 nm was measured on a Tecan Infinite M200 Pro and proliferation rate was calculated.

recombinant PP5-His6 [4] = target: T1, recombinant PP5-His6; experiment: P13-BODIPY binding to PP5 by fluorescence anisotropy; conditions: measured with 10 nM BODIPY-labeled P13, one-site fit; read-out: binding affinity to PP5
Procedure: We next synthesized BODIPY-labelled version of compound P13 (P13-BODIPY) in order to obtain the binding affinity of this inhibitor to PP5 in vitro (FIG. S3A). This was accomplished by coupling the azidopropyl-P13 10 with 4,4-difluoro-5,7-dimethyl-4-bora-3a,4a-diaza-s-indacene-3-propionic acid (BODIPY Acid 13). Using fluorescence anisotropy with recombinant PP5 protein (FIG. S3B), we determined the binding affinity of P13 compound to PP5 to be 376.2±60 nM (FIG. 1H).
Binding Measurements and Anisotropy: Recombinant PP5-His6 at the indicated concentrations was incubated on ice in 100 mM NaCl, 20 mM HEPES pH 8.0, 1% glycerol, 0.2 mM tris(2-carboxyethyl)phosphine (TCEP) and 0.5 mM MnCl2 with 10 nM BODIPY-labeled P13 in 2% DMSO for 30 min in opaque black 96 well plates (Corning). Uncalibrated fluorescence anisotropy was then measured using a SpectraMax i3 equipped with fluorescein anisotropy module (Molecular Devices). Curves were fit to a one-site binding equation using GraphPad Prism version 9.5.0. y=y0+A*x/(Kd+x) where y is measured uncalibrated anisotropy, y0 is the y intercept, A is the amplitude of the curve, x is the concentration of PP5 used, and Kd is the measured dissociation constant. Data are presented as mean±SEM.

VHL-null ccRCC cells = experiment: Flow cytometric cell death by propidium iodide staining; assay type: cell-based, human; conditions: 30 or 40 μM; A498 and 786-O versus Caki-1 and Caki-2
Procedure: Flow Cytometric Analysis: Fluorescence-activated cell sorting (FACS) analysis was performed according to the protocol in the Annexin V:FITC kit (Bio-Rad). In brief, cells were plated in 10 cm dish at 0.5×10^6 and incubated at 37° C. for 18 hrs. […] Cells were trypsinized, collected and washed once with 1× binding buffer (included in the kit). Propidium iodide was added, then the cells were immediately run on a Becton Dickinson LSRFortessa instrument (BD Biosciences). Data were analyzed using FlowJo software version 10.7.1 for Windows (BD Biosciences).

S194-FADD = experiment: Phosphorylation of S194-FADD by immunoblot after IC261; assay type: cell-based, human; conditions: 786-O and A498 cells, indicated amounts, 24 hrs
Procedure: Method Details Cell Transfection and Treatment: Cultured cells were split and then transfected the following day when about 40% confluent with each construct using Mirus TranslT-2020 (MirusBio) according to manufacturer's protocol. Cells were incubated at 37° C. and then extracted or collected for analysis after 24 hrs (HEK293) or 72 hrs (ccRCC cell lines). Short interfering RNA (siRNA) scramble control and PPP5C (PP5) targeting duplexes were purchased from OriGene (SKU: SR321403A, SR321403B, and SR321403C). Indicated cells were transiently transfected with the siRNA using Mirus TranslT-2020. For PP5 knock-down, either 30 nM of control siRNA or 10 nM of each PP5 siRNA duplex (A, B and C) were mixed prior to transfection. […]
Protein Extraction, Immunoprecipitation and Immunoblotting: Protein extraction from mammalian cells was carried out using methods previously described. Cell lysates were quantified using 1× Bradford reagent (Biorad). […] Co-immunoprecipitated proteins or proteins from cell lysate were detected with antibodies recognizing FLAG, 6×-His (ThermoFisher Scientific), GAPDH (ENZO Life Sciences), Cdc37 (StressMarq), GR, phospho-GR (S211), PP5, caspase-3, cleaved caspase-3, caspase-8, cleaved caspase-8, cleaved caspase-7, cleaved-PARP, phospho-RIPK1 (S166), phospho-FADD (S194), PP2A-C, VHL (Cell Signaling), phospho-RIPK1 (S161) (Invitrogen), PP5 and phospho-Cdc37 (S13) (Abcam). […]

PP5 = target: T2, PP5 (Homo sapiens, UniProt P53041); conditions: cited from earlier work
T2 sequence (P53041 1-499): T1 sequence (P53041 1-499)

PP1 = conditions: cited from earlier work
PP2A = experiment: Biotin-P5 / biotin-P13 pulldown in 786-O lysate, co-pulldown of PP2A; assay type: binding, human; conditions: cell lysate, 1 μM
PP5-FLAG = target: T3, PP5-FLAG (Homo sapiens, UniProt P53041); experiment: Biotin-P5 and biotin-P13 pulldown from HEK293 lysate; assay type: binding
T3 construct: expressed in transfected cells; host or cells: HEK293
T3 sequence (P53041 1-499): T1 sequence (P53041 1-499)
Procedure: (§1) Biotin-P5 and biotin-P13 Pulldown: HEK293 cells were transiently transfected with PP5-FLAG or active site point mutants and protein lysate extracted. Lysate was incubated with 0.01-10 μM biotin-P5 or biotin P-13 as indicated at 4° C. for 1 hr then added to streptavidin-conjugated agarose and incubated at 4° C. for 1 hr. Following three washes with fresh extraction buffer bound proteins were eluted in 5× Laemmli buffer and analyzed by Western blot. […] Samples were run by SDS PAGE, transferred to nitrocellulose membrane, and analyzed by Western blot.

[5] = target: T4, PP5-FLAG active site point mutants (Homo sapiens, UniProt P53041, R400A); experiment: Biotin-P13 pulldown of PP5 active site point mutants; assay type: binding; conditions: HEK293 lysate
T4 construct: expressed in transfected cells; host or cells: HEK293
T4 sequence (P53041 2-499 R400A): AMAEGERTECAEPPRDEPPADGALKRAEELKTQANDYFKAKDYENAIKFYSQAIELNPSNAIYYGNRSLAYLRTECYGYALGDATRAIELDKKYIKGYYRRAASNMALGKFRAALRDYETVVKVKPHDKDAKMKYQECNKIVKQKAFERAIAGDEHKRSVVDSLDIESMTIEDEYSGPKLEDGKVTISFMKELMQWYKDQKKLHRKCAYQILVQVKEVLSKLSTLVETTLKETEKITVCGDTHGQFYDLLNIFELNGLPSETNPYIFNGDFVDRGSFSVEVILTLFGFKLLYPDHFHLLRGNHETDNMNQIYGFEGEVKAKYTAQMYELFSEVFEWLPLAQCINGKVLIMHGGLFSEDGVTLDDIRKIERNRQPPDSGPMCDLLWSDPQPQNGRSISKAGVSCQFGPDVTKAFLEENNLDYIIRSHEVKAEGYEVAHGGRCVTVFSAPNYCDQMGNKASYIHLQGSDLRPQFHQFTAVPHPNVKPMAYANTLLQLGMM
Procedure: (§2) We then mutated docking site residues in the active site of PP5 to obtain further insight into the mechanism of P13 binding to PP5. […] These mutants were transiently expressed in HEK293 cells, and then the protein lysates were challenged with different amounts of biotin-P13 (FIG. 1G).
as §1

[6] = system: PP5-FLAG active site point mutants; experiment: as above; assay type: binding, human; conditions: HEK293 lysate
Procedure: as §2, §1

mode of PP5 inhibition (enzyme kinetics, Lineweaver-Burk) (recombinant PP5-His6 [2]): competitive inhibitors
Ki (recombinant PP5-His6 [2]; IC50 converted to Ki): 234 ± 50 nM
Kd (recombinant PP5-His6 [4]): 376 ± 60 nM
SMILES: Cc1ccc(NS(=O)(=O)c2c(C)noc2C)cc1C [Compound P13, (3,5-Dimethyl-4-isoxazolylsulfonyl)(3,4-xylyl)amine]
cleavage of apoptotic markers caspase 3 and 8 and PARP (786-O cells [1]; 10 μM, 24 hrs): cleavage of the apoptotic markers caspase 3 and 8 and PARP
proliferation of 786-O cells (MTT) (786-O cells [3]): significantly inhibited the proliferation

SMILES: Cc1noc(C)c1S(=O)(=O)Nc1ccc(Cc2ccccc2)cc1 [Compound P053, (3,5-Dimethyl-4-isoxazolylsulfonyl)(p-benzylphenyl)amine]
cleavage of caspase 3 and PARP (786-O cells [1]; 10 μM, 24 hrs): increased cleavage
cleavage of caspase 8 versus caspase 9 (extrinsic apoptosis) (786-O cells [1]; 10 μM, 24 hrs): cleavage of caspase 8 but not caspase 9
induction of apoptosis (cleaved PARP, cleaved caspase 8) (786-O cells [1]; 10 μM, 24 hrs): had the ability to induce apoptosis
cell death (PI staining) (VHL-null ccRCC cells): selectively caused cell death

SMILES: COc1cc(OC)c(C=C2C(O)=Nc3ccccc32)c(OC)c1 [IC261, reference compound]
induction of extrinsic apoptosis (apoptotic markers) (786-O cells [1]; indicated amounts, 16 hrs): induced extrinsic apoptosis in a dose-dependent manner
S194-FADD phosphorylation (S194-FADD): increase in S194-FADD phosphorylation

SMILES: CN1CCN(C(=O)C2C(C(=O)O)[C@H]3CC[C@@H]2O3)CC1 (stereo partly shown) [LB-100]
inhibition of PP5 (PP5): inhibit
inhibition of PP1 (PP1): inhibit

binding to PP2A (PP2A): did not bind
binding to PP5-FLAG compared to biotin-P5 (PP5-FLAG; 10 μM): bound more
binding of PP5-FLAG to biotinylated compound (streptavidin pulldown) (PP5-FLAG; 0.01-10 μM): binds
binding of R400A PP5 mutant compared to wild-type PP5 [5]: reduced binding
binding of H304Q, M309C and W386F PP5 mutants [6]: unable to bind
binding of R275A and Y451F PP5 mutants compared to wild-type PP5 [6]: increased binding
SMILES: Cc1ccc(N(CCCNC(=O)CCC[C@@H]2SC[C@@H]3NC(=O)N[C@@H]32)S(=O)(=O)c2c(C)noc2C)cc1C [biotin-P13, 4-[(3aS,4S,6aR)-2-Oxo-hexahydro-1H-thieno[3,4-d]imidazol-4-yl]-N-(3-[N-(3,4-dimethylphenyl)3,5-dimethyl-1,2-oxazole-4-sulfonamido]propyl}butanamide]
